In one data set the test system is Yap1 mRNA. Nature of the data set: Dose-dependent inhibition of human Yap1 in A-431 cells (Example 7, 10,000 cells per well, RTS36584). Type of data set: cell-based. Conditions: free uptake. Summed up:
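A-431 cells at 10,000 per well received modified oligonucleotides by free uptake at several doses. After about 48 hours, Yap1 mRNA was quantified with primer-probe set RTS36584, normalized to RIBOGREEN total RNA and expressed as % untreated control. IC50 came from linear regression on a log/linear plot.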

A short description of data set [1]: Tolerability in Balb/c mice, plasma chemistry markers (Example 12). Type of data set: in vivo. Conditions: 50 mg/kg subcutaneously twice a week for four weeks. The procedure:
Balb/c mice were treated with modified oligonucleotides selected from studies described above and evaluated for changes in the levels of various plasma chemistry markers.
(§1) Groups of male Balb/c mice at 6-7 weeks of age (obtained from Taconic) were injected subcutaneously twice a week for four weeks (for a total of 8 treatments) with 50 mg/kg of modified oligonucleotides. One group of male Balb/c mice was injected with PBS. Mice were euthanized on day 26 post start of treatment (24 hours following the final administration).

A short description of data set [2]: Tolerability in Balb/c mice, body and organ weights (Example 12). Type of data set: in vivo. Conditions: male Balb/c mice, 50 mg/kg s.c. twice a week for four weeks (8 treatments), end of study (day 26). The procedure: as §1
Body weights of Balb/c mice were measured at the end of the study, and the average body weight for each group is presented in the table below. Modified oligonucleotides that caused any changes in organ weights outside the expected range for modified oligonucleotides were excluded from further studies.

The mark [3] stands for this setting: Table 59, 15.6 nM, A-431 cells 10,000 cells per well, 48 hours.
Setting [4] is: Table 59, 62.5 nM, A-431 cells 10,000 cells per well, 48 hours.
The mark [5] stands for this setting: Table 59, 4000.00 nM, A-431 cells 10,000 cells per well, 48 hours.
[6] abbreviates: Table 59, A-431 cells 10,000 cells per well.
Where [7] appears, read: Table 61, 15.6 nM, A-431 cells 10,000 cells per well, 48 hours.
[8] abbreviates: Table 61, 62.5 nM, A-431 cells 10,000 cells per well, 48 hours.
[9] abbreviates: Table 61, 4000.00 nM, A-431 cells 10,000 cells per well, 48 hours.
Where [10] appears, read: Table 61, A-431 cells 10,000 cells per well.
Setting [11] is: 15.6 nM, A-431 cells, 10,000 cells per well, approximately 48 hours.
Setting [12] is: 62.5 nM, A-431 cells, 10,000 cells per well, approximately 48 hours.
Setting [13] is: 4000.00 nM, A-431 cells, 10,000 cells per well, approximately 48 hours.
[14] abbreviates: A-431 cells, approximately 48 hours, linear regression on log/linear plot.
Setting [15] is: Table 56, 15.6 nM, A-431 cells 10,000 cells per well, 48 hours.
Where [16] appears, read: Table 56, 62.5 nM, A-431 cells 10,000 cells per well, 48 hours.
Setting [17] is: Table 56, 4000.00 nM, A-431 cells 10,000 cells per well, 48 hours.
[18] abbreviates: Table 56, A-431 cells 10,000 cells per well.

Strand notation (5' to 3'): a small letter for the sugar, then the base; units joined by * are phosphorothioate-linked, units joined directly phosphodiester-linked; [ ] holds rarer units or linkages, { } end groups; capitals alone tell only the bases. k = constrained ethyl (cEt); [5mC] = 5-methylcytosine; d = 2'-deoxy (DNA)

The source of these data is patent US11214803B2, “Modulators of YAP1 expression” (Ionis Pharmaceuticals, Inc., priority 2019, dated 2022).

The term IC50 denotes the concentration at which inhibition is half-maximal. A lower IC50 goes with greater potency in that assay.

Turning to “958498 (kG*kA*kG*dT*dA*dT*dG*dT*dG*dG*d[5mC]*dA*dA*kT*kA*kA; antisense) [compound 958498]”, in the data set with Yap1 mRNA (setting [3]), the “Yap1 mRNA, % UTC” value worked out at 70 % UTC. Further, the “Yap1 mRNA, % UTC” value in the data set on Yap1 mRNA (setting [4]) worked out at 21 % UTC. Besides, the “Yap1 mRNA, % UTC” value in the data set with Yap1 mRNA (setting [5]) came to 2 % UTC. This substance came in with an IC50 in the data set on Yap1 mRNA (setting [6]) of 20 nM. In data set [1], the ALT was determined as 1441 U/L, the AST is 3197 U/L, the BUN came to 12 mg/dL and the TBIL came to 0.74 mg/dL. In data set [2], this substance showed a Kidney weight of 0.45 g, a Liver weight of 1.51 g, a Spleen weight of 0.19 g and a body weight of 20 g.

With “958509 (kA*kT*kG*dT*dT*dA*dT*dG*dT*dT*dT*dG*dG*kG*kT*kG; antisense) [compound 958509]”, in the data set on Yap1 mRNA (setting [7]), the “Yap1 mRNA, % UTC” value was 66 % UTC. In addition, in the data set with Yap1 mRNA (setting [8]), the “Yap1 mRNA, % UTC” value came to 37 % UTC. The “Yap1 mRNA, % UTC” value in the data set on Yap1 mRNA (setting [9]) was 7 % UTC. Moreover, in the data set on Yap1 mRNA (setting [10]), half-maximal inhibition (IC50) required 30 nM. In data set [1], this substance had an ALT of 1483 U/L, an AST of 1627 U/L, a BUN of 26 mg/dL and a TBIL of 0.31 mg/dL. In data set [2], this substance yielded a Kidney weight of 0.27 g, a Liver weight of 1.50 g, a Spleen weight of 0.13 g and a body weight of 20 g.

For “958540 (kA*kT*kT*d[5mC]*dT*dA*dT*d[5mC]*d[5mC]*dA*dG*dG*dG*kT*k[5mC]*kA; antisense) [compound 958540]”, the “Yap1 mRNA, % UTC” value in the data set with Yap1 mRNA (setting [11]) is on record as 62 % UTC. In addition, the “Yap1 mRNA, % UTC” value in the data set with Yap1 mRNA (setting [12]) was 28 % UTC. Also, in the data set with Yap1 mRNA (setting [13]), the “Yap1 mRNA, % UTC” value worked out at 8 % UTC. In the data set on Yap1 mRNA (setting [14]), the IC50 is 20 nM. In data set [1], this substance gave an ALT of 4127 U/L, an AST of 3940 U/L, a BUN of 25 mg/dL and a TBIL of 0.44 mg/dL. In data set [2], this substance returned a Kidney weight of 0.33 g, a Liver weight of 1.53 g, a Spleen weight of 0.09 g and a body weight of 19 g.

With “958553 (k[5mC]*k[5mC]*kA*dT*dT*dA*dT*dT*dA*d[5mC]*dT*d[5mC]*d[5mC]*kT*kG*kT; antisense) [compound 958553]”, the “Yap1 mRNA, % UTC” value in the data set with Yap1 mRNA (setting [3]) is 68 % UTC. Moreover, the “Yap1 mRNA, % UTC” value in the data set on Yap1 mRNA (setting [4]) amounted to 23 % UTC. Further, the “Yap1 mRNA, % UTC” value with Yap1 mRNA (setting [5]) came out at 5 % UTC. The substance also showed an IC50 in the data set with Yap1 mRNA (setting [6]) of 30 nM. For the same substance, in data set [1], the ALT was determined as 174 U/L, the AST came to 227 U/L, the BUN is given as 29 mg/dL and the TBIL was determined as 0.20 mg/dL. In addition, in data set [2], the Kidney weight is 0.29 g, the Liver weight was determined as 1.01 g, the Spleen weight was determined as 0.11 g and the body weight is listed as 21 g.

“958554 (kA*kA*k[5mC]*d[5mC]*dA*dT*dT*dA*dT*dT*dA*d[5mC]*dT*k[5mC]*k[5mC]*kT; antisense) [compound 958554]”: the “Yap1 mRNA, % UTC” value with Yap1 mRNA (Table 60, 15.6 nM, A-431 cells 10,000 cells per well, 48 hours) is reported as 70 % UTC. Further, in the data set with Yap1 mRNA (Table 60, 62.5 nM, A-431 cells 10,000 cells per well, 48 hours), the “Yap1 mRNA, % UTC” value came to 34 % UTC. The “Yap1 mRNA, % UTC” value with Yap1 mRNA (Table 60, 4000.00 nM, A-431 cells 10,000 cells per well, 48 hours) came to 4 % UTC. In addition, inhibition in the data set with Yap1 mRNA (Table 60, A-431 cells 10,000 cells per well) was half-maximal at 30 nM (IC50). In data set [1], this substance came in with an ALT of 583 U/L, an AST of 1051 U/L, a BUN of 17 mg/dL and a TBIL of 0.28 mg/dL. In data set [2], the Kidney weight is 0.28 g, the Liver weight is given as 1.05 g, the Spleen weight amounted to 0.15 g and the body weight was 22 g.

For “958603 (kT*kG*kG*dT*dA*dT*dG*dA*dA*dT*dT*d[5mC]*dT*kG*kA*kA; antisense) [compound 958603]”, the “Yap1 mRNA, % UTC” value in the data set on Yap1 mRNA (setting [3]) is listed as 70 % UTC. Moreover, in the data set on Yap1 mRNA (setting [4]), the “Yap1 mRNA, % UTC” value is on record as 27 % UTC. The “Yap1 mRNA, % UTC” value with Yap1 mRNA (setting [5]) is 4 % UTC. The same substance displayed a concentration for half-maximal inhibition (IC50) with Yap1 mRNA (setting [6]) of 30 nM. Also, in data set [1], the ALT is listed as 1103 U/L, the AST came to 927 U/L, the BUN came out at 27 mg/dL and the TBIL is recorded as 0.35 mg/dL. In data set [2], this substance came in with a Kidney weight of 0.36 g, a Liver weight of 1.80 g, a Spleen weight of 0.20 g and a body weight of 21 g.

Turning to “958721 (kG*kT*kA*dG*dT*dA*dT*dA*dA*dT*dG*dA*dG*kT*kT*kA; antisense) [compound 958721]”, in the data set with Yap1 mRNA (setting [15]), the “Yap1 mRNA, % UTC” value is 72 % UTC. Further, the “Yap1 mRNA, % UTC” value in the data set with Yap1 mRNA (setting [16]) was found to be 32 % UTC. Besides, the “Yap1 mRNA, % UTC” value with Yap1 mRNA (setting [17]) is 3 % UTC. Also, inhibition in the data set on Yap1 mRNA (setting [18]) was half-maximal at 30 nM (IC50). In data set [1], this substance registered an ALT of 57 U/L, an AST of 114 U/L, a BUN of 28 mg/dL and a TBIL of 0.17 mg/dL. In data set [2], this substance gave a Kidney weight of 0.33 g, a Liver weight of 1.45 g, a Spleen weight of 0.12 g and a body weight of 24 g.

In the case of “958725 (kG*kT*k[5mC]*dA*dG*dT*dT*dA*dT*d[5mC]*d[5mC]*dT*dA*kT*k[5mC]*k[5mC]; antisense) [compound 958725]”, the “Yap1 mRNA, % UTC” value with Yap1 mRNA (setting [11]) is 65 % UTC. In addition, the “Yap1 mRNA, % UTC” value with Yap1 mRNA (setting [12]) was found to be 36 % UTC. Further, the “Yap1 mRNA, % UTC” value with Yap1 mRNA (setting [13]) stood at 1 % UTC. Also, the midpoint of inhibition in the data set on Yap1 mRNA (setting [14]), the IC50, lay at 30 nM. For the same substance, in data set [1], the ALT is reported as 3758 U/L, the AST is recorded as 3758 U/L, the BUN stood at 31 mg/dL and the TBIL turned out to be 0.91 mg/dL. In data set [2], this substance showed a Kidney weight of 0.21 g, a Liver weight of 1.23 g, a Spleen weight of 0.04 g and a body weight of 15 g.

For the substance “958729 (kG*kT*k[5mC]*dA*dG*dT*dT*dA*dT*d[5mC]*d[5mC]*dT*dA*kT*k[5mC]*kT; antisense) [compound 958729]”, the “Yap1 mRNA, % UTC” value in the data set with Yap1 mRNA (setting [7]) amounted to 73 % UTC. For the same substance, in the data set with Yap1 mRNA (setting [8]), the “Yap1 mRNA, % UTC” value is 44 % UTC. Besides, the “Yap1 mRNA, % UTC” value in the data set on Yap1 mRNA (setting [9]) is given as 4 % UTC. Moreover, in the data set with Yap1 mRNA (setting [10]), the IC50 was found to be 50 nM. In data set [1], this substance gave an ALT of 4368 U/L, an AST of 4503 U/L, a BUN of 30 mg/dL and a TBIL of 2.15 mg/dL. In data set [2], the Kidney weight is on record as 0.24 g, the Liver weight is listed as 1.32 g, the Spleen weight amounted to 0.05 g and the body weight was 15 g.

For the substance “958736 (kG*kT*kG*dA*dT*dA*dT*dG*dG*dA*dT*dT*d[5mC]*kT*kG*kT; antisense) [compound 958736]”, the “Yap1 mRNA, % UTC” value with Yap1 mRNA (setting [15]) stood at 83 % UTC. The “Yap1 mRNA, % UTC” value with Yap1 mRNA (setting [16]) is reported as 38 % UTC. The “Yap1 mRNA, % UTC” value in the data set on Yap1 mRNA (setting [17]) is 7 % UTC. Further, half-maximal inhibition with Yap1 mRNA (setting [18]) (IC50) was put at 60 nM. In data set [1], the ALT stood at 2439 U/L, the AST amounted to 1450 U/L, the BUN is on record as 20 mg/dL and the TBIL is recorded as 0.31 mg/dL. In data set [2], this substance yielded a Kidney weight of 0.39 g, a Liver weight of 1.95 g, a Spleen weight of 0.18 g and a body weight of 24 g.
